Laboratory results published in patent US7745646B2, “Bicyclic heteroaryl inhibitors of PDE4” (Kalypsys, Inc., priority 2006, dated 2010).

These compounds were tested against T1, PDE4B (Homo sapiens, UniProt Q07343) (assay: Novel coupled PDE/AK bioluminescent assay, PDE4B inhibition). Settings: PDE4B catalytic domain.
T1 construct: hex-histidine (His6) (N); made in house
Type: biochemical
Description: We developed a novel coupled PDE/AK bioluminescent high-throughput assay to measure the activity of phosphodiesterases. In the PDE/AK assay, the AMP produced from the hydrolysis of cAMP by phosphodiesterase is converted to adenosine diphosphate (ADP) by the phosphotransferase activity of adenylate kinase (also known as ADK or myokinase). Adenylate kinase will catalyze the conversion of 1 mole of AMP and 1 mole of ATP into 2 moles of ADP. Thus the conversion of AMP to ADP will result in the subsequent loss of ATP. The decrease in ATP concentration can be monitored as light output using luciferase in a reaction that requires ATP to produce light. The PDE/AK assay uses luciferase, which catalyzes the production of light from ATP present in the reaction mix. The amount of emitted light is inversely proportional to the level of AMP present in the reaction. Test compounds are incubated with the phosphodiesterases and phosphodiesterase inhibitors will decrease the rate of cAMP hydrolysis and decrease the subsequent production of AMP.
A novel coupled PDE/AK assay was utilized to measure the inhibitory activity of compounds on PDE isoforms. The catalytic domain of PDE4B was fused to an amino-terminus hex-histidine affinity tag and purified. PDE4B enzyme was incubated with compounds for 10 minutes. Cyclic AMP substrate, ATP and adenylate kinase were then added to the PDE enzyme mix and incubated for 45 minutes at room temperature. A commercial ATP detection assay, Perkin Elmer's easyLite ATP detection reagent, was then added to measure the relative amount of ATP present in the reaction. After 10 minute incubation, the luminescent signal was quantitated with either the Perkin Elmer Viewlux or Molecular Devices Acquest or Analyst.

T1 sequence (Q07343 330-659 limits assumed, species assumed): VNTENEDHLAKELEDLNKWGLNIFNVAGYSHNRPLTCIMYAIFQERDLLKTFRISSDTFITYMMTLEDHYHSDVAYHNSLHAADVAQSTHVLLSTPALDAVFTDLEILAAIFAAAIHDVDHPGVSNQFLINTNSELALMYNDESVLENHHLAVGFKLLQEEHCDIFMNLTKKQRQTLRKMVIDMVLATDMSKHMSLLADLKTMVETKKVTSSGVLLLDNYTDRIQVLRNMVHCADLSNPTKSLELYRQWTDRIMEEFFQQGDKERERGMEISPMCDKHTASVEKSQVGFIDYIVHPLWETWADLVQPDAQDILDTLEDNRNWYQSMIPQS

Row | Structure (SMILES) | IC50 [µM]
1 | COC(=O)COc1c(OC)ccc2c(Nc3c(Cl)cncc3Cl)cc(=O)oc12 [Example 45, Methyl 2-(4-(3,5-dichloropyridin-4-ylamino)-7-methoxy-2-oxo-2H-chromen-8-yloxy)acetate] | < 1
2 | CCOC(=O)COc1c(OC)ccc2c(Nc3c(Cl)cncc3Cl)cc(=O)oc12 [Example 46, Ethyl 2-(4-(3,5-dichloropyridin-4-ylamino)-7-methoxy-2-oxo-2H-chromen-8-yloxy)acetate] | < 1
3 | COc1ccc2c(Nc3c(Cl)cncc3Cl)cc(=O)oc2c1OCCC1CCCCC1 [Example 47, 8-(2-Cyclohexylethoxy)-4-(3,5-dichloropyridin-4-ylamino)-7-methoxy-2H-chromen-2-one] | < 1
4 | COc1ccc2c(Nc3c(Cl)cncc3Cl)cc(=O)oc2c1OCCCc1ccccc1 [Example 48, 4-(3,5-Dichloropyridin-4-ylamino)-7-methoxy-8-(3-phenylpropoxy)-2H-chromen-2-one] | < 1
5 | COc1ccc2c(Nc3c(Cl)cncc3Cl)cc(=O)oc2c1OCC(=O)O [Example 49, 2-(4-(3,5-Dichloropyridin-4-ylamino)-7-methoxy-2-oxo-2H-chromen-8-yloxy)acetic acid] | > 1
6 | COc1ccc2c(Nc3c(Cl)cncc3Cl)cc(=O)oc2c1OC[C@@H]1OC(=O)[C@H]2OC(C)(C)O[C@@H]12 [Example 50, 4-(3,5-Dichloropyridin-4-ylamino)-8-(((3aS,4S,6aS)-2,2-dimethyl-6-oxotetrahydrofuro[3,4-d][1,3]dioxol-4-yl)methoxy)-7-methoxy-2H-chromen-2-one] | < 1
7 | COc1ccc2c(Nc3c(Cl)cncc3Cl)cc(=O)oc2c1OC[C@@H]1OC(=O)[C@@H](O)[C@H]1O [Example 51, 4-(3,5-Dichloropyridin-4-ylamino)-8-(((2S,3R,4S)-3,4-dihydroxy-5-oxotetrahydrofuran-2-yl)methoxy)-7-methoxy-2H-chromen-2-one] | < 1
8 | COc1ccc2c(Nc3c(Cl)cncc3Cl)cc(=O)oc2c1OCCCCCN1CCN(C)CC1 [Example 52, 4-(3,5-Dichloropyridin-4-ylamino)-7-methoxy-8-(5-(4-methylpiperazin-1-yl)pentyloxy)-2H-chromen-2-one] | < 1
9 | COc1ccc2c(Nc3c(Cl)cncc3Cl)cc(=O)oc2c1OCCCCCN1CCOCC1 [Example 53, 4-(3,5-Dichloropyridin-4-ylamino)-7-methoxy-8-(5-morpholinopentyloxy)-2H-chromen-2-one] | < 1
10 | COc1ccc2c(Nc3c(Cl)cncc3Cl)cc(=O)oc2c1OCCCCCN1CCCCC1 [Example 54, 4-(3,5-Dichloropyridin-4-ylamino)-7-methoxy-8-(5-(piperidin-1-yl)pentyloxy)-2H-chromen-2-one] | < 1
11 | COc1ccc2c(Nc3c(Cl)cncc3Cl)cc(=O)oc2c1OCCCCCN1CCCC1 [Example 55, 4-(3,5-Dichloropyridin-4-ylamino)-7-methoxy-8-(5-(pyrrolidin-1-yl)pentyloxy)-2H-chromen-2-one] | < 1
12 | COc1ccc2c(Nc3c(Cl)cncc3Cl)cc(=O)oc2c1OCC(N)=O [Example 56, 2-(4-(3,5-Dichloropyridin-4-ylamino)-7-methoxy-2-oxo-2H-chromen-8-yloxy)acetamide] | < 1
13 | COc1ccc2c(Nc3c(Cl)cncc3Cl)cc(=O)oc2c1OCCCCCC#N [Example 57, 6-(4-(3,5-Dichloropyridin-4-ylamino)-7-methoxy-2-oxo-2H-chromen-8-yloxy)hexanenitrile] | < 1
14 | COC(=O)CCCCCOc1c(OC)ccc2c(Nc3c(Cl)cncc3Cl)cc(=O)oc12 [Example 58, Methyl 6-(4-(3,5-dichloropyridin-4-ylamino)-7-methoxy-2-oxo-2H-chromen-8-yloxy)hexanoate] | < 1
15 | COC(=O)CCCCCOc1c(OC)ccc2c(N(C)c3c(Cl)cncc3Cl)cc(=O)oc12 [Example 59, Methyl 6-(4-((3,5-dichloropyridin-4-yl)(methyl)amino)-7-methoxy-2-oxo-2H-chromen-8-yloxy)hexanoate] | > 1
16 | COc1ccc2c(Nc3c(Cl)cncc3Cl)cc(=O)oc2c1O[C@@H]1O[C@H](COC(C)=O)[C@@H](OC(C)=O)[C@H](OC(C)=O)[C@H]1OC(C)=O [Example 60, (2R,3R,4S,5R,6S)-2-(Acetoxymethyl)-6-(4-(3,5-dichloropyridin-4-ylamino)-7-methoxy-2-oxo-2H-chromen-8-yloxy)tetrahydro-2H-pyran-3,4,5-triyl triacetate] | < 1
17 | COc1ccc2c(Nc3c(Cl)cncc3Cl)cc(=O)oc2c1OCCCCCOC(C)=O [Example 61, 5-(4-(3,5-Dichloropyridin-4-ylamino)-7-methoxy-2-oxo-2H-chromen-8-yloxy)pentyl acetate] | < 1
18 | COc1ccc2c(Nc3c(Cl)cncc3Cl)cc(=O)oc2c1OCCOCCBr [Example 62, 8-(2-(2-Bromoethoxy)ethoxy)-4-(3,5-dichloropyridin-4-ylamino)-7-methoxy-2H-chromen-2-one] | < 1
19 | COc1ccc2c(Nc3c(Cl)cncc3Cl)cc(=O)oc2c1OCCCCCc1nn[nH]n1 [Example 63, 8-(5-(2H-Tetrazol-5-yl)pentyloxy)-4-(3,5-dichloropyridin-4-ylamino)-7-methoxy-2H-chromen-2-one] | < 1
20 | COc1ccc2c(Nc3c(Cl)cncc3Cl)cc(=O)oc2c1OC [Example 64, 4-(3,5-Dichloropyridin-4-ylamino)-7,8-dimethoxy-2H-chromen-2-one] | < 1
21 | COc1ccc2c(Nc3c(Cl)cncc3Cl)cc(=O)oc2c1OCCCCCCC(=O)O [Example 65, 7-(4-(3,5-Dichloropyridin-4-ylamino)-7-methoxy-2-oxo-2H-chromen-8-yloxy)heptanoic acid] | < 1
22 | COc1ccc2c(Nc3c(Cl)cncc3Cl)cc(=O)oc2c1OCCCCCCCC(=O)O [Example 66, 8-(4-(3,5-Dichloropyridin-4-ylamino)-7-methoxy-2-oxo-2H-chromen-8-yloxy)octanoic acid] | < 1
23 | COc1ccc2c(Nc3c(Cl)cncc3Cl)cc(=O)oc2c1OCCCCCCCCC(=O)O [Example 67, 9-(4-(3,5-Dichloropyridin-4-ylamino)-7-methoxy-2-oxo-2H-chromen-8-yloxy)nonanoic acid] | < 1
24 | COc1ccc2c(Nc3c(Cl)cncc3Cl)cc(=O)oc2c1OCCCCCN [Example 68, 8-(5-Aminopentyloxy)-4-(3,5-dichloropyridin-4-ylamino)-7-methoxy-2H-chromen-2-one] | < 1
25 | COc1ccc2c(Nc3c(Cl)cncc3Cl)cc(=O)oc2c1OCCOCCN(C)C [Example 69, 4-(3,5-Dichloropyridin-4-ylamino)-8-(2-(2-(dimethylamino)ethoxy)ethoxy)-7-methoxy-2H-chromen-2-one] | < 1
26 | COc1ccc2c(Nc3c(Cl)cncc3Cl)cc(=O)oc2c1OCCCCN1CCN(C)CC1 [Example 70, 4-(3,5-Dichloropyridin-4-ylamino)-7-methoxy-8-(4-(4-methylpiperazin-1-yl)butoxy)-2H-chromen-2-one] | < 1
27 | COc1ccc2c(Nc3c(Cl)cncc3Cl)cc(=O)oc2c1OCCCCN1CCOCC1 [Example 71, 4-(3,5-Dichloropyridin-4-ylamino)-7-methoxy-8-(4-morpholinobutoxy)-2H-chromen-2-one] | < 1
28 | COc1ccc2c(Nc3c(Cl)cncc3Cl)cc(=O)oc2c1OCCCCCO [Example 72, 4-(3,5-Dichloropyridin-4-ylamino)-8-(5-hydroxypentyloxy)-7-methoxy-2H-chromen-2-one] | < 1
